Counter-ions that a name gives are not always drawn.
How the values were obtained:
[1] = Solubility and hygroscopicity of the salt; format: physicochemical
[2] = test system: BSA induced asthma in guinea pigs; assay: Inhibitory action on BSA-induced (experimentally allergic) asthma attack in passively sensitized guinea pigs; format: in vivo, guinea pig; settings: for p (statistical significance vs non treatment) / z1 (statistical value vs non treatment): severity; for z1 (statistical value vs non treatment): Mann and Whitney U test
Method: The present compound is studied on asthma attacks induced by the antigen-antibody reaction in guinea pigs. The guinea pigs are sensitized passively by the injection of 0.1 to 0.3 ml /100g body weight of rabbit antiserum to BSA (bovine serum albumin) into the ear vein. Forty six hours after passive sensitization, the guinea pigs are orally given the tested compounds. Two hours after oral administration, the asthma attack is provoked by an aerosol injection (0.1 ml/min.) of 1% BSA solution in physiological saline into the plastic chamber in which the testing guinea pig is placed. The symptoms of the asthma attack are observed for 10 minutes and scored on the following shock indices. The shock indices are examined by the shock grades, No. of collapsed guinea pigs/No. of used animals and survival rate.
The shock grades are as follows:
1 slight stimulation of expiration
2 stimulation of expiration (labored expiration)
3 attack of singultation
4 the strongest attack of collapse and struggle
but recovery from collapse within 5 minutes
5 recovery from collapse within 5 to 10 minutes
6 interruption of expiration to death within 10
*Statistical comparisons were carried out with the Mann and Whitneys' U
z1 : The statistical value between non treatment and each tested
z2 : The statistical value between the present compound and […]

[3] = test system: histamine-induced asthma attack; assay: Inhibitory action on histamine-induced asthma attack in guinea pigs; format: in vivo, guinea pig; settings: for z1 (statistical value): Mann and Whitney U test
Method: Inhibitory actions on histamine-induced asthma attack: Male guinea pigs, of about 300 g body weight are used. Asthma attack is provoked by an aerosol of 0.2% histamine dihydrochloride solution in physiological saline for 10 minutes. The inhibitory actions are examined by shock grades, No. of collapsed guinea pigs/No. of provoked guinea pigs and survival rate. The tested compounds are orally given 2 hrs. prior to spraying of histamine solution.
A/B: No. of collapsed guinea pigs/ No. of provoked guinea pigs.
Statistical comparisons were carried out with the Mann and Whtineys' U

[4] = test system: guinea pig tracheal chain strips; assay: Anti histaminic action: histamine-induced contraction of guinea pig tracheal chain strips; settings: 4×10^^-5 M; Tyrodes solution
[5] = test system: heterologous PCA in guinea pigs; assay: Heterologous passive cutaneous anaphylaxis (PCA) in guinea pigs; format: in vivo, guinea pig; settings: 25 mg/kg po, 30 min. before challenge; rabbit antiserum to egg albumin
Method: Male guinea pigs are passively sensitized by the intradermal injection of rabbit antiserum to egg albumin and challenged by the intravenous injection of egg albumin 4 hrs. after the sensitization. The test compounds are orally given 30 min. before the challenge.

ddN mice = settings: cited from earlier work
guinea pig ileum = assay: Schultz-Dale reaction in guinea pig ileum sensitized actively with egg albumin; settings: antigen egg albumin
Method: Male guinea pigs are actively sensitized and their ileum preparations are treated by Schultz-Dales method (J. Pharmacol. Exp. Ther., 4, 167, 1913). […] These preceeding pharmacological properties of the present compound are due to triazolo [1,5-a]pyridine.

[6] = antiserum 0.1 ml/100 g, 0.5 mg/kg p.o.
[7] = antiserum 0.1 ml/100 g, 1.0 mg/kg p.o.
[8] = antiserum 0.1 ml/100 g, 5.0 mg/kg p.o.
[9] = antiserum 0.2 ml/100 g, 5 mg/kg p.o.
[10] = antiserum 0.3 ml/100 g, 5 mg/kg p.o.

With c1ccc(C(c2ccccc2)N2CCN(CCCc3nc4ccccn4n3)CC2)cc1 [dihydrochloride salt] the solubility in alcohols ([1]; alcohols) was “soluble”, the hygroscopicity ([1]; fine needles from ethanol-petroleum ether) was “hydroscopic” and the solubility in water ([1]; water) was “soluble”.
With CN1CCCN(C(c2ccccc2)c2ccc(Cl)cc2)CC1 (stereo not drawn) [homochlorcyclizine, reference compound] the “A/B: No. of collapsed / No. of provoked guinea pigs” value [2, 6] was 4/6, the “A/B: collapsed guinea pigs, percentage” value [2, 6] was 66.7% and the “Survival rate (animals)” value [2, 6] was 5/6. The “Survival rate, percentage” value [2, 6] was 83.3%, the “A/B: No. of collapsed / No. of provoked guinea pigs” value [2, 7] was 6/10 and the “A/B: collapsed guinea pigs, percentage” value [2, 7] was 60%. The “Survival rate (animals)” value [2, 7] was 10/10, the “Survival rate, percentage” value [2, 7] was 100% and the “A/B: No. of collapsed / No. of provoked guinea pigs” value [2, 8] was 1/6. The “A/B: collapsed guinea pigs, percentage” value [2, 8] was 16.7%, the “Survival rate (animals)” value [2, 8] was 6/6 and the “Survival rate, percentage” value [2, 8] was 100%. The “A/B: No. of collapsed / No. of provoked guinea pigs” value [2, 9] was 4/6, the “A/B: collapsed guinea pigs, percentage” value [2, 9] was 66.7% and the “Survival rate (animals)” value [2, 9] was 6/6. For the same compound, the “Survival rate, percentage” value [2, 9] was 100%, the “A/B: No. of collapsed / No. of provoked guinea pigs” value [2, 10] was 1.5 and the “A/B: collapsed guinea pigs, percentage” value [2, 10] was 20%. The “Survival rate (animals)” value [2, 10] was 5/5, the “Survival rate, percentage” value [2, 10] was 100% and the “p (statistical significance vs non treatment)” value [2, 6] was < 0.02. For the same compound, the “z1 (statistical value vs non treatment)” value [2, 6] was 2.235, the “p (statistical significance vs non treatment)” value [2, 7] was < 0.001 and the “z1 (statistical value vs non treatment)” value [2, 7] was 3.368. The “p (statistical significance vs non treatment)” value [2, 8] was < 0.001, the “z1 (statistical value vs non treatment)” value [2, 8] was 3.576 and the “p (statistical significance vs non treatment)” value [2, 9] was < 0.0001. For the same compound, the “z1 (statistical value vs non treatment)” value [2, 9] was 3.993, the “p (statistical significance vs non treatment)” value [2, 10] was < 0.002 and the “z1 (statistical value vs non treatment)” value [2, 10] was 3.23. The “A/B: No. of collapsed / No. of provoked guinea pigs” value ([3]; 2.50 mg/kg p.o.) was 5/11, the “A/B: collapsed guinea pigs, number in parentheses (percentage)” value ([3]; 2.50 mg/kg p.o.) was 45.5 and the “Survival rate (animals)” value ([3]; 2.50 mg/kg p.o.) was 11/11. The “Survival rate, number in parentheses (percentage)” value ([3]; 2.50 mg/kg p.o.) was 100, the “z1 (statistical value)” value ([3]; 2.50 mg/kg p.o. vs non treatment 2 (so in the source)) was > 5 and the “significance of difference from non treatment 2 (so in the source)” value ([3]; 2.50 mg/kg p.o., homochlorcyclizine) was “markedly significant difference”. For the same compound, the “A/B: No. of collapsed / No. of provoked guinea pigs” value ([3]; 10.0 mg/kg p.o.) was 1/6, the “A/B: collapsed guinea pigs, number in parentheses (percentage)” value ([3]; 10.0 mg/kg p.o.) was 16.7 and the “Survival rate (animals)” value ([3]; 10.0 mg/kg p.o.) was 6/6. The “Survival rate, number in parentheses (percentage)” value ([3]; 10.0 mg/kg p.o.) was 100, the “z1 (statistical value)” value ([3]; 10.0 mg/kg p.o. vs non treatment 1 (so in the source)) was 3.315 and the “p (significant difference from non treatment 1)” value ([3]; 10.0 mg/kg p.o., homochlorcyclizine) was 0.0005. For the same compound, the “inhibitory rate on histamine-induced contraction” value [4] was 74%, the “Inhibition % of extravasation of blue dye” value [5] was 41.7% and the “acute LD50 (reported for standard drug)” value (ddN mice) was 353 mg/kg.
In the case of c1ccc(C(c2ccccc2)N2CCN(CCCc3nc4ccccn4n3)CC2)cc1 [the present compound HCl salt], the “Inhibition % of Schultz-Dale reaction” value (guinea pig ileum; 2×10^^-7 M) is reported as 32.2%, the “Inhibition % of Schultz-Dale reaction” value (guinea pig ileum; 3×10^^-7 M) is reported as 55.6% and the “Inhibition % of Schultz-Dale reaction” value (guinea pig ileum; 5×10^^-7 M) is reported as 60.1%.
